These results are taken from patent publication US8513423B2 (Janssen Pharmaceutica, NV, priority 2010, dated 2013).

Molecules are shown by their SMILES. Numbering of substitutions follows the chain as printed. Like-named read-outs stand apart in the source and are kept apart here.

Assay [1] has as its target T1, purified wild type MGL (wt-MGLL 6H-11-313) (Homo sapiens, UniProt Q99685).
T1 construct: purified wild type MGL (wt-MGLL 6H-11-313)
T1 sequence (Q99685 1-303): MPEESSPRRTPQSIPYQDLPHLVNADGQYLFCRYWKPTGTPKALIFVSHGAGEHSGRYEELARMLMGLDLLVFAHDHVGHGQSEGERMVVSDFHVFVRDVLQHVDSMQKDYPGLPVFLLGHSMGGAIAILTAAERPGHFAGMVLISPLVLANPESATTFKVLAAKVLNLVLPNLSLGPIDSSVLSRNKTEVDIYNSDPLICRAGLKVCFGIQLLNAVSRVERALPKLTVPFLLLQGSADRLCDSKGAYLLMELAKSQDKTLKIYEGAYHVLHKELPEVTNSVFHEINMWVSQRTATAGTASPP
The assay can be described thus: MGL enzyme activity assay (4MU-B cleavage), wild type MGL. The settings on record: 10 μM 4MU-B, 5 nM enzyme, 37° C., read-out: MGL wild type inh IC50. It counts as biochemical. The protocol:
All rate-based assays were performed in black 384-well polypropylene PCR microplates (Abgene) in a total volume of 30 μL. Substrate 4-methylumbelliferyl butyrate (4MU-B; Sigma) and either purified mutant MGL (mut-MGLL 11-313 L179S L186S) or purified wild type MGL (wt-MGLL 6H-11-313) were diluted separately into 20 mM PIPES buffer (pH=7.0), containing 150 mM NaCl and 0.001% Tween 20. Compounds of Formula (I) were pre-dispensed (50 nL) into the assay plate using a Cartesian Hummingbird prior to adding 4MU-B (25 μL of 1.2× solution to a final concentration of 10 μM) followed by enzyme (5 μL of a 6× solution to a final concentration of 5 nM) to initiate the reaction. Final compound concentrations ranged from 17 to 0.0003 μM. The fluorescence change due to 4MU-B cleavage was monitored with excitation and emission wavelengths of 335 and 440 nm, respectively, and a bandwidth of 10 nm (Safire^2, Tecan) at 37° C. for 5 min.
The IC50 values for compounds of Formula (I) were determined using Excel from a fit of the equation to the concentration-response plot of the fractional activity as a function of inhibitor concentration.

Another assay deals with T2, mutant MGL (Homo sapiens, UniProt Q99685, L169S/L176S).
T2 construct: purified mutant MGL (mut-MGLL 11-313 L179S L186S)
T2 sequence (Q99685 1-303 L169S/L176S): T1 sequence (Q99685 1-303) with L169S, L176S
The assay can be described thus: MGL ThermoFluor assay - mutant. It counts as binding. The procedure: The ThermoFluor (TF) assay is a 384-well plate-based binding assay that measures thermal stability of proteins^1,2. The experiments were carried out using instruments available from Johnson & Johnson Pharmaceutical Research & Development, LLC. TF dye used in all experiments was 1,8-ANS (Invitrogen: A-47). Final TF assay conditions used for MGL studies were 0.07 mg/ml of mutant MGL, 100 μM ANS, 200 mM NaCl, 0.001% Tween-20 in 50 mM PIPES (pH=7.0).
Screening compound plates contained 100% DMSO compound solutions at a single concentration. For follow-up concentration-response studies, compounds were arranged in a pre-dispensed plate (Greiner Bio-one: 781280), wherein compounds were serially diluted in 100% DMSO across 11 columns within a series. Columns 12 and 24 were used as DMSO reference and contained no compound. For both single and multiple compound concentration-repsonse experiments, the compound aliquots (46 nL) were robotically predispensed directly into 384-well black assay plates (Abgene: TF-0384/k) using the Hummingbird liquid handler. Following compound dispension, protein and dye solutions were added to achieve the final assay volume of 3 μL. The assay solutions were overlayed with 1 μl of silicone oil (Fluka, type DC 200: 85411) to prevent evaporation.
Bar-coded assay plates were robotically loaded onto a thermostatically controlled PCR-type thermal block and then heated from 40 to 90° C. degrees at a ramp-rate of 1° C./min for all experiments. Fluorescence was measured by continuous illumination with UV light (Hamamatsu LC6), supplied via fiber optics and filtered through a band-pass filter (380-400 nm; >6 OD cutoff). Fluorescence emission of the entire 384-well plate was detected by measuring light intensity using a CCD camera (Sensys, Roper Scientific) filtered to detect 500±25 nm, resulting in simultaneous and independent readings of all 384 wells. A single image with 20-sec exposure time was collected at each temperature, and the sum of the pixel intensity in a given area of the assay plate was recorded vs temperature and fit to standard equations to yield the Tm^1. • 1. Pantoliano, M. W., Petrella, E. C., Kwasnoski, J. D., Lobanov, V. S., Myslik, J., Graf, E., Carver, T., Asel, E., Springer, B. A., Lane, P., and Salemme, F. R. (2001) J Biomol Screen 6, 429-40. • 2. Matulis, D., Kranz, J. K., Salemme, F. R., and Todd, M. J. (2005) Biochemistry 44, 5258-66.
The Kd values for compounds of Formula (I) were determined from a fit of the equation to the concentration-response plot of the fractional activity as a function of Tm. For some experiments, quantitative NMR spectroscopy (qNMR) was used to measure concentration of the initial 100% DMSO compound solutions and, using the same fitting method, qKd values were determined

[2] abbreviates: compound concentration measured by qNMR, read-out: MGL mutant ThermoFluor qKd (using qNMR conc.).

Turning to `Cc1nc2cc(C(=O)N3CC(C4CCN(C(=O)c5nccs5)CC4)C3)ccc2n1-c1ccc(F)c(F)c1` [Cpd 88, 1-(3,4-Difluorophenyl)-2-methyl-5-({3-[1-(1,3-thiazol-2-ylcarbonyl)piperidin-4-yl]azetidin-1-yl}carbonyl)-1H-benzimidazole], the IC50 in assay [1] is 9.49 nM. Besides, the Kd on mutant MGL (setting [2]) stood at 13.3 nM.

For `Cc1nc2cc(C(=O)N3CC(C4CCN(C(=O)c5nccs5)CC4)C3)ccc2n1-c1ccc(C(F)(F)F)cc1` [Cpd 89, 2-Methyl-5-({3-[1-(1,3-thiazol-2-ylcarbonyl)piperidin-4-yl]azetidin-1-yl}carbonyl)-1-[4-(trifluoromethyl)phenyl]-1H-benzimidazole], the IC50 in assay [1] came to 34.1 nM. The Kd at mutant MGL (setting [2]) turned out to be 7.7 nM.

`Cc1nc2cc(C(=O)N3CC(C4CCN(C(=O)c5nccs5)CC4)C3)ccc2n1CC(F)(F)F` [Cpd 90, 2-Methyl-5-({3-[1-(1,3-thiazol-2-ylcarbonyl)piperidin-4-yl]azetidin-l-yl}carbonyl)-1-(2,2,2-trifluoroethyl)-1H-benzimidazole]: the IC50 in assay [1] was determined as 173 nM. Moreover, on mutant MGL (setting [2]), the Kd turned out to be 23.7 nM.

Take `Cc1nc2cc(C(=O)N3CC(C4CCN(C(=O)c5nccs5)CC4)C3)ccc2n1CCC(F)(F)F` [Cpd 91, 2-Methyl-5-({3-[1-(1,3-thiazol-2-ylcarbonyl)piperidin-4-yl]azetidin-l-yl}carbonyl)-1-(3,3,3-trifluoropropyl)-1H-benzimidazole]: the IC50 in assay [1] came to 237 nM. In addition, the Kd on mutant MGL (setting [2]) is 32.5 nM.

As for `Cc1nc2cc(C(=O)N3CC(C4CCN(C(=O)c5nccs5)CC4)C3)ccc2n1C1CCC(F)(F)CC1` [Cpd 92, 1-(4,4-Difluorocyclohexyl)-2-methyl-5-({3-[1-(1,3-thiazol-2-ylcarbonyl)piperidin-4-yl]azetidin-1-yl}carbonyl)-1H-benzimidazole], the IC50 in assay [1] is 163 nM. Also, the Kd at mutant MGL (setting [2]) was determined as 3.4 nM.

`O=C(c1ccc2c(ccn2-c2ccc(Cl)cn2)c1)N1CC(C2CCN(C(=O)c3nccs3)CC2)C1` [Cpd 93, 1-(5-Chloropyridin-2-yl)-5-({3-[1-(1,3-thiazol-2-ylcarbonyl)piperidin-4-yl]azetidin-1-yl}carbonyl)-1H-indole]: in assay [1], the IC50 is under 5 nM. On mutant MGL (0.07 mg/ml mutant MGL, pH=7.0, read-out: MGL mutant ThermoFluor Kd), the Kd was determined as 5.5 nM.

`O=C(c1cc2ccc(C(F)(F)F)cc2s1)N1CC(C2(O)CCN(C(=O)c3nccs3)CC2)C1` [Cpd 94, 1-(1,3-Thiazol-2-ylcarbonyl)-4-(1-{[6-(trifluoromethyl)-1-benzothiophen-2-yl]carbonyl}azetidin-3-yl)piperidin-4-ol]: the concentration for half-maximal inhibition (IC50) in assay [1] stood at 10 nM. In addition, the Kd on mutant MGL (setting [2]) was 24.9 nM.

Take `Cc1cc(-n2ccc3cc(C(=O)N4CC(C5CCN(C(=O)c6nccs6)CC5)C4)ccc32)ccn1` [Cpd 95, 1-(2-Methylpyridin-4-yl)-5-({3-[1-(1,3-thiazol-2-ylcarbonyl)piperidin-4-yl]azetidin-1-yl}carbonyl)-1H-indole]: the IC50 in assay [1] amounted to 14 nM. For the same compound, the Kd on mutant MGL (setting [2]) amounted to 38.6 nM.

`O=C(c1ccc2c(c1)[nH]c(=O)n2-c1ccccc1)N1CC(C2CCN(C(=O)c3nccs3)CC2)C1` [Cpd 96, 1-Phenyl-5-({3-[1-(1,3-thiazol-2-ylcarbonyl)piperidin-4-yl]azetidin-1-yl}carbonyl)-1,3-dihydro-2H-benzimidazol-2-one]: the IC50 in assay [1] amounted to 78.1 nM. Besides, on mutant MGL (setting [2]), the Kd turned out to be 24.7 nM.

As to `O=C(c1ccc2c(c1)[nH]c(=O)n2-c1ccc(F)cc1)N1CC(C2CCN(C(=O)c3nccs3)CC2)C1` [Cpd 97, 1-(4-Fluorophenyl)-5-({3-[1-(1,3-thiazol-2-ylcarbonyl)piperidin-4-yl]azetidin-1-yl}carbonyl)-1,3-dihydro-2H-benzimidazol-2-one], in assay [1], the IC50 is 34 nM. Besides, the Kd at mutant MGL (setting [2]) was determined as 22.1 nM.

On to `O=C(c1ccc2c(c1)[nH]c(=O)n2-c1ccc(F)c(F)c1)N1CC(C2CCN(C(=O)c3nccs3)CC2)C1` [Cpd 98, 1-(3,4-Difluorophenyl)-5-({3-[1-(1,3-thiazol-2-ylcarbonyl)piperidin-4-yl]azetidin-1-yl}carbonyl)-1,3-dihydro-2H-benzimidazol-2-one], for which the IC50 in assay [1] was found to be 16.6 nM. Besides, on mutant MGL (setting [2]), the Kd turned out to be 43.6 nM.

For the compound `O=C(c1ccc2c(c1)[nH]c(=O)n2-c1ccc(C(F)(F)F)cc1)N1CC(C2CCN(C(=O)c3nccs3)CC2)C1` [Cpd 99, 5-({3-[1-(1,3-Thiazol-2-ylcarbonyl)piperidin-4-yl]azetidin-1-yl}carbonyl)-1-[4-(trifluoromethyl)phenyl]-1,3-dihydro-2H-benzimidazol-2-one], the IC50 in assay [1] was found to be 17.3 nM. Also, at mutant MGL (setting [2]), the Kd worked out at 16.7 nM.

With `O=C(c1ccc2c(c1)[nH]c(=O)n2CCC(F)(F)F)N1CC(C2CCN(C(=O)c3nccs3)CC2)C1` [Cpd 100, 5-({3-[1-(1,3-Thiazol-2-ylcarbonyl)piperidin-4-yl]azetidin-1-yl}carbonyl)-1-(3,3,3-trifluoropropyl)-1,3-dihydro-2H-benzimidazol-2-one], in assay [1], the IC50 came to 101 nM. Also, the Kd on mutant MGL (setting [2]) was determined as 88.8 nM.

`O=C(c1ccc2c(c1)[nH]c(=O)n2C1CCC(F)(F)CC1)N1CC(C2CCN(C(=O)c3nccs3)CC2)C1` [Cpd 101, 1-(4,4-Difluorocyclohexyl)-5-({3-[1-(1,3-thiazol-2-ylcarbonyl)piperidin-4-yl]azetidin-1-yl}carbonyl)-1,3-dihydro-2H-benzimidazol-2-one]: in assay [1], the IC50 came to 104 nM. Also, the Kd at mutant MGL (setting [2]) is 3.9 nM.
